Data published in patent US8895550B2, “Triazolopyridine compounds as PIM kinase inhibitors” (Array BioPharma Inc., priority 2008, dated 2014).

Tests used:
Type in all cases: biochemical
PIM-1 = PIM-1 (Homo sapiens, UniProt P11309); experiment: Enzyme PIM-1 Assay (radiometric [33P]ATP incorporation into PIM2tide, filter plate); conditions: 35 μM ATP, 7.5 μM PIM2tide, 0.25 nM PIM-1, 60 min at 22° C.; high dose 10 μM
Protocol: (§1) The assay for the determination of PIM-1 activity is based on the incorporation of [^33P]PO4 from [γ-^33P]ATP into PIM2tide substrate and capture of the radiolabeled peptide onto a Whatman P81 (phosphocellulose) filter plate. The amount of radiolabeled product is then measured by liquid scintillation counting. The final buffer conditions were as follows: 20 mM K^+MOPS, pH 7.4, 10 mM MgCl2, 0.005% Tween-20, 1 mM DTT. Assay mixtures contained 35 μM [γ-^33P]ATP (20 μCi/mL), 7.5 μM PIM2tide and 0.25 nM PIM-1 in a total volume of 50 μL. Incubations were carried out for 60 min at 22° C. and quenched with 75 μL, of 200 mM H3PO4, filtered through a Whatman P81 plate and washed (1×200 μL and 5×100 μL) with 200 mM H3PO4. Fifty μL of liquid scintillation cocktail were then added per well, and the plate was counted for 30 s/well using a TopCount NXT.
(§2) Compounds were prepared at 50× the final concentration in DMSO by conducting 3-fold serial dilutions from a 500-μM intermediate dilution to give a 10-point dosing curve having a high dose of 10 μM. One-μL aliquots of these were then transferred to the assay mixtures above to give a final concentration of DMSO of 2%. A standard or reference compound was typically included on each assay plate to validate that plate. For each plate, percent of control (POC) values were calculated for each well. IC50's were estimated from the POC's using a standard 4-parameter logistic model. The IC50 is defined as the concentration of inhibitor at which the POC equals 50 for the fitted curve.

[1] = target: T1, GST-tagged recombinant full-length human Pim-2 (Homo sapiens, UniProt Q9P1W9); experiment: PIM-2 Assay (as Example A with GST-tagged recombinant full-length human Pim-2); conditions: 4 μM ATP, 1.0 μM PIM2tide, 1.5 nM Pim-2; high dose 10 μM
T1 construct: GST-tagged recombinant full-length human Pim-2; GST
T1 sequence (Q9P1W9 whole entry): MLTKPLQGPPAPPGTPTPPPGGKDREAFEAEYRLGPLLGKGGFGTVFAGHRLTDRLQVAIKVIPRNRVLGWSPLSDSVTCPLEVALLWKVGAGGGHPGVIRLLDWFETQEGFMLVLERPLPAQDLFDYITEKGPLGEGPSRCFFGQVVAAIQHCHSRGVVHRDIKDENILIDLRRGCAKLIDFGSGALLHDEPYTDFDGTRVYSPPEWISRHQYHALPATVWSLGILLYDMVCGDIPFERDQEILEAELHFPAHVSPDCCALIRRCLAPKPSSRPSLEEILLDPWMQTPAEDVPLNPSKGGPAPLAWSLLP
Protocol: as §1, §2
Assay was performed as described in Example A, using 4 μM [γ-^33P]ATP (20 μCi/mL), 1.0 μM PIM2tide and 1.5 nM GST-tagged recombinant full-length human Pim-2 in place of PIM-1.

recombinant rat PIM-3 = recombinant rat PIM-3 (Rattus norvegicus, UniProt O70444); experiment: PIM-3 Assay (as Example A with recombinant rat PIM-3); conditions: 30 μM ATP, 3.75 μM PIM2tide, 0.5 nM PIM-3; high dose 10 μM
Protocol: as §1, §2
Assay was performed as described in Example A, using 30 μM [γ-^33P]ATP (20 μCi/mL), 3.75 μM PIM2tide and 0.5 nM recombinant rat PIM-3 in place of PIM-1.

PIM-1, sequence (P11309 whole entry, species assumed): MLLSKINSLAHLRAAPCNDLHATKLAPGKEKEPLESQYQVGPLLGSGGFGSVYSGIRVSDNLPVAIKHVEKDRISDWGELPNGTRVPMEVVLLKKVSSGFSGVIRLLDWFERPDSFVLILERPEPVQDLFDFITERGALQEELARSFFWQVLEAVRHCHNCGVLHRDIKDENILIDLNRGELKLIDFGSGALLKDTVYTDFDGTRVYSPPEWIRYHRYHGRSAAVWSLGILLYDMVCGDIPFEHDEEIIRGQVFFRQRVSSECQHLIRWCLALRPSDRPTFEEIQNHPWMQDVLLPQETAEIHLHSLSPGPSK

N[C@@H]1CCN(c2cccc3ccc(-c4nnc5ccccn45)nc23)C[C@@H]1F (relative stereo) [Example 27, (cis)-1-(2-([1,2,4]triazolo[4,3-a]pyridin-3-yl)quinolin-8-yl)-3-fluoropiperidin-4-amine]
IC50 (PIM-1): 34 nM | IC50 [1]: 570 nM | IC50 (recombinant rat PIM-3): 38 nM

COCCOc1ccn2c(-c3ccc4cccc(N5CCNCC5)c4n3)nnc2c1 [Example 1, 2-(7-(2-Methoxyethoxy)-[1,2,4]triazolo[4,3-a]pyridin-3-yl)-8-(piperazin-1-yl)quinoline]
IC50 (PIM-1): 255 nM | IC50 [1]: ≥ 10000 nM | IC50 (recombinant rat PIM-3): 554 nM

COc1ccn2c(-c3ccc4cccc(N5CCNCC5)c4n3)nnc2c1 [Example 2, 2-(7-Methoxy-[1,2,4]triazolo[4,3-a]pyridin-3-yl)-8-(piperazin-1-yl)quinoline]
IC50 (PIM-1): 179 nM | IC50 [1]: ≥ 10000 nM

COc1ccn2c(-c3ccc4cccc(N5CCC(N)CC5)c4n3)nnc2c1 [Example 3, 1-(2-(7-Methoxy-[1,2,4]triazolo[4,3-a]pyridin-3-yl)quinolin-8-yl)piperidin-4-amine]
IC50 (PIM-1): 24 nM | IC50 [1]: 2310 nM | IC50 (recombinant rat PIM-3): 60 nM

COc1ccn2c(-c3ccc4cccc(N5CCOCC5)c4n3)nnc2c1 [Example 4, 4-(2-(7-Methoxy-[1,2,4]triazolo[4,3-a]pyridin-3-yl)quinolin-8-yl)morpholine]
IC50 (PIM-1): 2790 nM | IC50 [1]: ≥ 10000 nM

c1cc(N2CCCCC2)c2nc(-c3nnc4ccccn34)ccc2c1 [Example 5, 2-([1,2,4]Triazolo[4,3-a]pyridin-3-yl)-8-(piperidin-1-yl)quinoline]
IC50 (PIM-1): 24 nM | IC50 [1]: 2600 nM | IC50 (recombinant rat PIM-3): 121 nM

c1cc(N2CCNCC2)c2nc(-c3nnc4ccccn34)ccc2c1 [Example 6, 2-([1,2,4]Triazolo[4,3-a]pyridin-3-yl)-8-(piperazin-1-yl)quinoline]
IC50 (PIM-1): 31 nM | IC50 [1]: 2980 nM | IC50 (recombinant rat PIM-3): 105 nM

C[C@@H]1CN(c2cccc3ccc(-c4nnc5ccccn45)nc23)CCN1 [Example 7, (R)-2-([1,2,4]Triazolo[4,3-a]pyridin-3-yl)-8-(3-methylpiperazin-1-yl)quinoline]
IC50 (PIM-1): 17 nM | IC50 [1]: 3590 nM | IC50 (recombinant rat PIM-3): 105 nM

C[C@@H]1CN(c2cccc3ccc(-c4nnc5ccccn45)nc23)C[C@H](C)N1 [Example 8, 2-([1,2,4]Triazolo[4,3-a]pyridin-3-yl)-8-((cis)-3,5-dimethylpiperazin-1-yl)quinoline]
IC50 (PIM-1): 54 nM | IC50 [1]: ≥ 10000 nM | IC50 (recombinant rat PIM-3): 189 nM

NC1CCN(c2cccc3ccc(-c4nnc5ccccn45)nc23)CC1 [Example 9, 1-(2-([1,2,4]Triazolo[4,3-a]pyridin-3-yl)quinolin-8-yl)piperidin-4-amine]
IC50 (PIM-1): 11 nM | IC50 [1]: 543 nM | IC50 (recombinant rat PIM-3): 24 nM

NCC1CCN(c2cccc3ccc(-c4nnc5ccccn45)nc23)CC1 [Example 10, (1-(2-([1,2,4]Triazolo[4,3-a]pyridin-3-yl)quinolin-8-yl)piperidin-4-yl)methanamine]
IC50 (PIM-1): 3 nM | IC50 [1]: 224 nM | IC50 (recombinant rat PIM-3): 13 nM

NCC1CCN(c2cccc3ccc(-c4nnc5cc(CO)ccn45)nc23)CC1 [Example 11, (3-(8-(4-(Aminomethyl)piperidin-1-yl)quinolin-2-yl)-[1,2,4]triazolo[4,3-a]pyridin-7-yl)methanol]
IC50 (PIM-1): 84 nM | IC50 [1]: 2600 nM | IC50 (recombinant rat PIM-3): 217 nM

CCNCc1ccn2c(-c3ccc4cccc(N5CCC(CN)CC5)c4n3)nnc2c1 [Example 12, N-((3-(8-(4-(aminomethyl)piperidin-1-yl)quinolin-2-yl)-[1,2,4]triazolo[4,3-a]pyridin-7-yl)methyl)ethanamine]
IC50 (PIM-1): 3 nM | IC50 [1]: 92 nM | IC50 (recombinant rat PIM-3): 4 nM

NCc1ccn2c(-c3ccc4cccc(N5CCC(CN)CC5)c4n3)nnc2c1 [Example 13, (1-(2-(7-(Aminomethyl)-[1,2,4]triazolo[4,3-a]pyridin-3-yl)quinolin-8-yl)piperidin-4-yl)methanamine]
IC50 (PIM-1): 2 nM | IC50 [1]: 29 nM | IC50 (recombinant rat PIM-3): 4 nM

NCC1CCN(c2cccc3ccc(-c4nnc5cc(C(O)CO)ccn45)nc23)CC1 (stereo not drawn) [Example 14, 1-(3-(8-(4-(Aminomethyl)piperidin-1-yl)quinolin-2-yl)-[1,2,4]triazolo[4,3-a]pyridin-7-yl)ethane-1,2-diol]
IC50 (PIM-1): 4 nM | IC50 [1]: 509 nM | IC50 (recombinant rat PIM-3): 20 nM

OCC1CCCN(c2cccc3ccc(-c4nnc5ccccn45)nc23)C1 (stereo not drawn) [Example 15, (1-(2-([1,2,4]Triazolo[4,3-a]pyridin-3-yl)quinolin-8-yl)piperidin-3-yl)methanol]
IC50 (PIM-1): 15 nM | IC50 [1]: 2080 nM

NCC1CCN(c2cc(F)cc3ccc(-c4nnc5ccccn45)nc23)CC1 [Example 16, (1-(2-([1,2,4]triazolo[4,3-a]pyridin-3-yl)-6-fluoroquinolin-8-yl)piperidin-4-yl)methanamine]
IC50 (PIM-1): 3 nM | IC50 [1]: 185 nM | IC50 (recombinant rat PIM-3): 10 nM

NCC1CCN(c2ccc(F)c3ccc(-c4nnc5ccccn45)nc23)CC1 [Example 17, (1-(2-([1,2,4]triazolo[4,3-a]pyridin-3-yl)-5-fluoroquinolin-8-yl)piperidin-4-yl)methanamine]
IC50 (PIM-1): 77 nM | IC50 [1]: 1960 nM | IC50 (recombinant rat PIM-3): 51 nM

NCC1CCN(c2cc(Cl)cc3ccc(-c4nnc5ccccn45)nc23)CC1 [Example 18, (1-(2-([1,2,4]Triazolo[4,3-a]pyridin-3-yl)-6-chloroquinolin-8-yl)piperidin-4-yl)methanamine]
IC50 (PIM-1): 32 nM | IC50 [1]: 736 nM | IC50 (recombinant rat PIM-3): 25 nM

CC1CCCN(c2cccc3ccc(-c4nnc5ccccn45)nc23)C1 (stereo not drawn) [Example 19, 2-([1,2,4]triazolo[4,3-a]pyridin-3-yl)-8-(3-methylpiperidin-1-yl)quinoline]
IC50 (PIM-1): 18 nM | IC50 [1]: 1800 nM

OC1CCCN(c2cccc3ccc(-c4nnc5ccccn45)nc23)C1 (stereo not drawn) [Example 20, 1-(2-([1,2,4]triazolo[4,3-a]pyridin-3-yl)quinolin-8-yl)piperidin-3-ol]
IC50 (PIM-1): 48 nM | IC50 [1]: 2380 nM

N[C@@H]1CCCN(c2cccc3ccc(-c4nnc5ccccn45)nc23)C1 [Example 21, (R)-1-(2-([1,2,4]triazolo[4,3-a]pyridin-3-yl)quinolin-8-yl)piperidin-3-amine]
IC50 (PIM-1): 7 nM | IC50 [1]: 142 nM

N[C@H]1CCCN(c2cccc3ccc(-c4nnc5ccccn45)nc23)C1 [Example 22, (S)-1-(2-([1,2,4]triazolo[4,3-a]pyridin-3-yl)quinolin-8-yl)piperidin-3-amine]
IC50 (PIM-1): 270 nM | IC50 [1]: 3100 nM

CC1(C)CN(c2cccc3ccc(-c4nnc5ccccn45)nc23)CCN1 [Example 23, 2-([1,2,4]triazolo[4,3-a]pyridin-3-yl)-8-(3,3-dimethylpiperazin-1-yl)quinoline]
IC50 (PIM-1): 22 nM | IC50 [1]: 647 nM | IC50 (recombinant rat PIM-3): 62 nM

Cc1nc(CN2CCN(c3cccc4ccc(-c5nnc6ccccn56)nc34)CC2)cs1 [Example 24, 4-((4-(2-([1,2,4]triazolo[4,3-a]pyridin-3-yl)quinolin-8-yl)piperazin-1-yl)methyl)-2-methylthiazole]
IC50 (PIM-1): 150 nM | IC50 [1]: ≥ 10000 nM

CC1CCCN(c2c(Br)ccc3ccc(-c4nnc5ccccn45)nc23)C1 (stereo not drawn) [Example 25, 2-([1,2,4]triazolo[4,3-a]pyridin-3-yl)-7-bromo-8-(3-methylpiperidin-1-yl)quinoline]
IC50 (PIM-1): 128 nM | IC50 [1]: 3020 nM

CC1(N)CCN(c2cccc3ccc(-c4nnc5ccccn45)nc23)CC1 [Example 26, 1-(2-([1,2,4]triazolopyridin-3-yl)quinolin-8-yl)-4-methylpiperidin-4-amine]
IC50 (PIM-1): 21 nM | IC50 [1]: 613 nM | IC50 (recombinant rat PIM-3): 62 nM
